Experimental data published in patent US8257928B2, “Methods for predicting and treating tumors resistant to drug, immunotherapy and radiation” (The Regents of the University of California, priority 2008, dated 2012).
“Also recorded” adds a separate entry of the source.

How the values were obtained:
Assay type in all cases: cell-based, human
HMT3522 T4-2 cells [1] = assay: Percent cell death in 2D monolayer, 3D rBM and reverted cultures (active caspase 3); details: for death sensitivity of cells cultured in 3D rBM: 3D rBM disorganized aggregates vs 2D monolayer; for death sensitivity of cells cultured in 3D rBM / death sensitivity of structurally reverted spheroids: TRAIL 1.0 μg/mL, Paclitaxel 20 μM; for death sensitivity of structurally reverted spheroids: reverted with tyrphostin AG 1478 in 3D rBM
Excerpt: (§1) The oligonucleotides specifying the small hairpin RNAs (shRNAs) were subcloned from pSilencer-H1 into pLZRS-MFG-CMV-Neo-U6, a recombinant self-inactivating retroviral vector constructed from the backbone of an MFG provirus (Proc. Natl. Acad. Sci. USA 85:6460-6464 (1988); Proc. Natl. Acad. Sci. USA 90:3539-3543 (1993)), which directs the expression of shRNA under the control of the U6 promoter. Amphotropic retrovirus was produced in Phoenix ampho cells (provided by Professor G. Nolan, Stanford Medical Center) with packaging vectors pCgp and pVSVG to boost viral titer. S1 cells or T4-2 cells, maintained in monolayer cultures, were then spin infected with retrovirus carrying the various RNAi constructs and infected cell populations were selected using 300 μg/ml G418 (Invitrogen).
Non-neoplastic HMT3522 S1 breast epithelial cells or neoplastic HMT3522 T4-2 cells were embedded (8.5×10^5/ml) within reconstituted basement membrane (rBM) gel (Matrigcl, BD Biosciences) in chamber slides (Lab-Tek chamber slides, Nunc) according to the procedures described in U.S. Pat. No. 6,123,941 and Nat. Method. 4:359-365 (2007). […] Phenotypic reversion of HMT3522 T4-2 cells in three dimensional rBM cultures was performed using an epidermal growth factor receptor (EGFR) specific tyrosine kinase inhibitor tyrphostin AG 1478 (100 nM) (Calbiochem), as previously described (Proc. Natl. Acad. Sci. USA 95:14821-14826 (1998))
Apoptotic cell death of the breast epithelial cells cultured in three dimensional rBM was initiated by treatment with recombinant, purified human tumor necrosis factor-related apoptosis-inducing ligand (TRAIL) peptides (BIOMOL) or Paclitaxel (Sigma-Aldrich) as described (Cancer Cell 2:205-216 (2002)). DNA damage-induced cell death was initiated by ionizing radiation (IR) using a Mark I Cesium 137 irradiator (JL Shepherd & Associates).
(§2) Percent cell death induced by TRAIL or Paclitaxel was quantified using detection of active caspase 3 (Cell Signaling) by indirect immunofluorescence as described (J. Cell Biol. 163:1397-1407 (2003)). Percent cell death induced by IR was quantified using Live/Dead Viability/Cytotoxicity Assay (Molecular Probes). For both methods, cells were counterstained with 4′,6-diamidino-2-phenylindole (DAPI) to label cell nuclei present at different focal planes in the 3D architectures. Percent death was calculated as cells positive for ethidium bromide or active caspase 3 expressed as a percentage of the total number of cells scored by the nuclear staining.
Percent cell death induced by TRAIL was quantified using detection of active caspasc 3 as described in Example 4.

N-CoR2 = assay: Immunoblot of N-CoR2 protein abundance in 2D, 3D and reverted cultures; details: T4-2 aggregates reverted into organized spheroids by EGFR inhibition, vs disorganized 3D aggregates
Description: For immunoblot analysis, cell colonies (S1 acini or T4-2 cellular aggregates) in 3D rBM were isolated using ice-cold PBS/EDTA. Total cell lysates from monolayered cells or isolated colonies were prepared in Laemmli lysing buffer containing protease inhibitors and immunoblot analysis was performed as described (Exp. Cell Res. 298:122-132 (2004)).

HMT3522 T4-2 cells [2] = assay: Phenotypic reversion in three dimensional rBM cultures; details: tyrphostin AG 1478 100 nM
Excerpt: Non-neoplastic HMT3522 S1 breast epithelial cells or neoplastic HMT3522 T4-2 cells were embedded (8.5×10^5/ml) within reconstituted basement membrane (rBM) gel (Matrigcl, BD Biosciences) in chamber slides (Lab-Tek chamber slides, Nunc) according to the procedures described in U.S. Pat. No. 6,123,941 and Nat. Method. 4:359-365 (2007). The three dimensional cultures were maintained for 12 days before induction of cell death. Phenotypic reversion of HMT3522 T4-2 cells in three dimensional rBM cultures was performed using an epidermal growth factor receptor (EGFR) specific tyrosine kinase inhibitor tyrphostin AG 1478 (100 nM) (Calbiochem), as previously described (Proc. Natl. Acad. Sci. USA 95:14821-14826 (1998))

HMT3522 S1 cells [3] = assay: Percent cell death of 3D rBM acini (active caspase 3; Live/Dead assay for IR); details: stable N-CoR2 downregulation vs control cells, range of drug concentrations or IR doses
Excerpt: as §1, with “(Invitrogen). […]” for “(Invitrogen).”
as §2, with “For both methods, cells were counterstained with 4′,6-diamidino-2-phenylindole (DAPI) to label cell nuclei present at different focal planes in the 3D architectures.” left out

HMT3522 S1 cells [4] = assay: Cell growth rates on culture plastics and 3D acinar morphogenesis in rBM; details: stable RNAi vs control shRNA
Description: For the comparison of cell growth rates, cells were seeded on culture plastics and the cell number was determined at indicated time points. Population doublings were calculated as In (cell number at day n/cell number at day 0)/ln 2. Data were shown as mean±SEM of triplicate experiments.
To illustrate the basal surfaces and the intercellular junctions of the polarized acinar structures, the cultures were directly fixed with 2% paraformaldehyde and then incubated with primary antibodies toward β4-integrin and β-catenin, followed by FITC-(green) or Texas red-(red) conjugated secondary antibodies, respectively. Phase contrast images or immunofluorescence images were taken using a scanning confocal laser (model 2000-MP, Bio-Rad Laboratories) attached to a fluorescence microscope (model Eclipse TE-300, Nikon).

CC(=O)O[C@H]1C(=O)[C@@]2(C)[C@H]([C@H](OC(=O)c3ccccc3)[C@]3(O)C[C@H](OC(=O)[C@H](O)[C@@H](NC(=O)c4ccccc4)c4ccccc4)C(C)=C1C3(C)C)[C@]1(OC(C)=O)CO[C@@H]1C[C@@H]2O [Paclitaxel, reference compound]
death sensitivity of cells cultured in 3D rBM (HMT3522 T4-2 cells [1]): decreased sensitivity
death sensitivity of structurally reverted spheroids (HMT3522 T4-2 cells [1]): further decrease in the sensitivity

COc1cc2ncnc(Nc3cccc(Cl)c3)c2cc1OC [tyrphostin AG 1478]
protein abundance of N-CoR2 (N-CoR2): further increase in the protein abundance of N-CoR2
phenotypic reversion of cellular aggregates in 3D rBM (HMT3522 T4-2 cells [2]): phenotypic reversion of the cellular aggregates into organized spheroid-like structures

HDAC3 shRNA: retrovirally expressed small hairpin RNA, siRNA sequence 5′-AAGATGCTGAACCATGCACCT-3′ (SEQ ID NO:2) for HDAC3
sensitivity to the TRAIL treatment of N-CoR2-overexpressed cells (HMT3522 T4-2 cells [1]; HDAC3 simultaneously downregulated by retrovirus-mediated RNAi): restored to an extent comparable to that of vehicle-treated cells

N-CoR2 (K449A): mutant N-CoR2 with lysine 449 mutated to alanine; binds HDAC3 but does not activate it
sensitivity to death induction by TRAIL of cells transduced with the mutant (HMT3522 T4-2 cells [1]; T4-2 cells in rBM gel 5 days, vs vector control cells): hypersensitive to death induction to an extent even greater than that of the vector control cells

N-CoR2 shRNA: retrovirally expressed small hairpin RNA, siRNA sequence 5′-AAGGGTATCATCACCGCTGTG-3′ (SEQ ID NO:1) for N-CoR2
sensitivity of S1 acini to death stimuli (TRAIL, Paclitaxel, IR) (HMT3522 S1 cells [3]): much more sensitive
increased resistance of reverted spheroidal structures to death stimuli (TRAIL, Paclitaxel) (HMT3522 T4-2 cells [1]; stable N-CoR2 downregulation, TRAIL 1.0 μg/mL or Paclitaxel 20 μM): completely reversed
growth on culture plastics, integrity and polarization of acini in 3D rBM (HMT3522 S1 cells [4]): does not significantly alter

B1: TRAIL: recombinant, purified human tumor necrosis factor-related apoptosis-inducing ligand (TRAIL) peptides (BIOMOL) (protein, UniProt P50591 1-281, looked up)
Tumor necrosis factor ligand …: MAMMEVQGGPSLGQTCVLIVIFTVLLQSLCVAVTYVYFTNELKQMQDKYSKSGIACFLKEDDSYWDPNDEESMNSPCWQVKWQLRQLVRKMILRTSEETISTVQEKQQNISPLVRERGPQRVAAHITGTRGRSNTLSSPNSKNEKALGRKINSWESSRSGHSFLSNLHLRNGELVIHEKGFYYIYSQTYFRFQEEIKENTKNDKQMVQYIYKYTSYPDPILLMKSARNSCWSKDAEYGLYSIYQGGIFELKENDRIFVSVTNEHLIDMDHEASFFGAFLVG
death sensitivity of cells cultured in 3D rBM (HMT3522 T4-2 cells [1]): decreased sensitivity
death sensitivity of structurally reverted spheroids (HMT3522 T4-2 cells [1]): further decrease in the sensitivity
death sensitivity of cells with stable overexpression of wild-type N-CoR2 (HMT3522 T4-2 cells [1]; vs vector control cells, 3D rBM): markedly resistant; also recorded: less sensitive
